Assay results taken from the NIST ThermoML archive (doi:10.1016/j.jct.2015.07.028).

Assay: molar heat capacity at saturation pressure
Details: Small (less than 1 g) adiabatic calorimetry

C=CC(C)(C)O [2-methyl-3-buten-2-ol]
molar heat capacity [J/K/mol]
Details | Crystal 1 | Liquid
169.35 K | 120.3 | –
169.77 K | 120.8 | –
170 K | 121 | –
171.3 K | 122.5 | –
172.07 K | 123.4 | –
173.24 K | 124.6 | –
174.35 K | 125.9 | –
175.17 K | 126.8 | –
176.62 K | 128.4 | –
177.09 K | 128.8 | –
178.87 K | 130.7 | –
179 K | 130.8 | –
179.83 K | 131.6 | –
180 K | 131.9 | –
180.91 K | 132.7 | –
181.12 K | 133 | –
182.29 K | 134.1 | –
182.8 K | 134.7 | –
183.35 K | 135.2 | –
184.61 K | 136.5 | –
184.69 K | 136.5 | –
185.57 K | 137.5 | –
186.58 K | 138.4 | –
186.93 K | 138.7 | –
187.79 K | 139.5 | –
188.45 K | 140.2 | –
189.23 K | 140.9 | –
189.99 K | 141.7 | –
190 K | 141.7 | –
190.32 K | 141.9 | –
190.4 K | 142 | –
191.52 K | 143.1 | –
192.18 K | 143.7 | –
192.46 K | 144.1 | –
193.79 K | 145.4 | –
194.04 K | 145.5 | –
194.36 K | 146 | –
194.42 K | 146 | –
195.89 K | 147.4 | –
196.05 K | 147.7 | –
196.36 K | 147.9 | –
196.53 K | 148.2 | –
197.73 K | 149.3 | –
198.3 K | 150 | –
198.69 K | 150.5 | –
199.56 K | 151.3 | –
200 K | 151.5 | –
200.23 K | 152 | –
200.54 K | 152.4 | –
200.84 K | 152.9 | –
201.38 K | 153.4 | –
202.15 K | 154.2 | –
202.82 K | 155.2 | –
202.98 K | 155.5 | –
203.2 K | 155.5 | –
204.05 K | 156.6 | –
205 K | 157.8 | –
205.1 K | 158.3 | –
205.14 K | 158.2 | –
205.95 K | 159.3 | –
206.79 K | 160.4 | –
207.21 K | 161.1 | –
207.45 K | 161.3 | –
207.83 K | 162 | –
208.58 K | 163 | –
209.3 K | 164.2 | –
209.7 K | 164.9 | –
209.73 K | 164.8 | –
210 K | 161.4 | –
210.51 K | 166.1 | –
211.48 K | 167.6 | –
211.99 K | 168.4 | –
212.63 K | 169.5 | –
213.77 K | 171.3 | –
214.23 K | 172.1 | –
214.72 K | 172.9 | –
216.04 K | 174.8 | –
216.46 K | 175.1 | –
216.8 K | 176 | –
218.3 K | 178.6 | –
218.66 K | 178.8 | –
218.86 K | 179 | –
220 K | 171.2 | –
220.53 K | 182.2 | –
220.85 K | 182.3 | –
220.9 K | 182.4 | –
222.77 K | 186.2 | –
222.93 K | 186.4 | –
223.02 K | 186.5 | –
224.94 K | 191.2 | –
224.97 K | 190.4 | –
225.17 K | 191 | –
226.94 K | 195.7 | –
227.09 K | 196.6 | –
227.29 K | 196 | –
228.88 K | 201.4 | –
229.2 K | 202.9 | –
229.37 K | 202.7 | –
230.8 K | 208.3 | –
231.27 K | 210.9 | –
231.43 K | 210.5 | –
232.67 K | 217.3 | –
233.3 K | 221.6 | –
233.43 K | 221.3 | –
234.49 K | 229.7 | –
235.25 K | 237.1 | –
235.37 K | 236.9 | –
236.24 K | 248.1 | –
240 K | 190.8 | –
245.03 K | 195.7 | 193.8
245.63 K | – | 195.7
245.81 K | – | 194.6
246.77 K | – | 194.9
247.82 K | – | 195.6
247.97 K | – | 195.7
248.89 K | – | 196.3
249.15 K | – | 196.4
250 K | – | 197.1
250.07 K | – | 197.1
250.13 K | – | 197.2
250.55 K | – | 197.4
251.14 K | – | 197.8
251.38 K | – | 197.9
252.31 K | – | 198.7
252.44 K | – | 198.8
252.58 K | – | 198.8
253.39 K | – | 199.4
253.62 K | – | 199.5
254.55 K | – | 200.3
254.63 K | – | 200.3
254.88 K | – | 200.5
255.63 K | – | 201
255.85 K | – | 201.2
256.68 K | – | 201.8
256.78 K | – | 201.9
257.32 K | – | 202.4
257.86 K | – | 202.7
258.07 K | – | 202.9
258.73 K | – | 203.4
259 K | – | 203.6
259.76 K | – | 204.2
260 K | – | 204.4
260.78 K | – | 205
262.18 K | – | 206.2
262.83 K | – | 206.7
264.6 K | – | 208.1
264.88 K | – | 208.4
266.93 K | – | 210
267.01 K | – | 210.2
268.98 K | – | 211.8
269.4 K | – | 212.2
270 K | – | 212.7
271.03 K | – | 213.5
271.79 K | – | 214.3
273.08 K | – | 215.2
273.15 K | – | 215.4
274.18 K | – | 216.2
275.13 K | – | 217.1
276.55 K | – | 218.4
277.18 K | – | 218.9
278.91 K | – | 220.5
279.23 K | – | 220.7
280 K | – | 221.4
281.26 K | – | 222.6
281.28 K | – | 222.6
283.33 K | – | 224.4
283.61 K | – | 224.6
285.38 K | – | 226.2
285.94 K | – | 226.8
287.43 K | – | 228
288.26 K | – | 228.9
289.48 K | – | 229.9
290 K | – | 230.3
290.57 K | – | 230.9
291.53 K | – | 231.6
292.87 K | – | 232.8
293.58 K | – | 233.4
295.16 K | – | 234.7
295.63 K | – | 235.2
297.44 K | – | 236.8
297.69 K | – | 236.9
298.15 K | – | 237.4
299.72 K | – | 238.7
299.74 K | – | 238.7
300 K | – | 238.9
301.79 K | – | 240.4
303.84 K | – | 242.1
305.9 K | – | 243.7
307.95 K | – | 245.3
310 K | – | 246.9
310.01 K | – | 246.9
312.06 K | – | 248.3
314.12 K | – | 249.9
316.18 K | – | 251.3
318.23 K | – | 252.8
320 K | – | 253.9
320.29 K | – | 254.1
322.35 K | – | 255.4
324.41 K | – | 256.7
326.47 K | – | 258
328.53 K | – | 259.1
330 K | – | 259.9
330.59 K | – | 260.2
332.65 K | – | 261.4
334.71 K | – | 262.3
336.78 K | – | 263.3
338.84 K | – | 264.2
340 K | – | 264.7
340.9 K | – | 265
342.97 K | – | 265.8
345.03 K | – | 266.6
347.09 K | – | 267.3
349.16 K | – | 268
350 K | – | 268.3
351.22 K | – | 268.7
353.29 K | – | 269.1
355.35 K | – | 269.8
357.42 K | – | 270.4
359.48 K | – | 270.9
360 K | – | 270.9
361.55 K | – | 271.3
363.61 K | – | 271.6
365.68 K | – | 272.1
367.74 K | – | 272.4
370 K | – | 272.9
